Test results published in PMC5971061, “Differential Effects of Linkers on the Activity of Amphiphilic Tobramycin Antifungals” (Molecules : A Journal of Synthetic Chemistry and Natural …, 2018).
≈ marks a conversion by molar mass, not a printed value. One block for each molecule: values may come before it.

How the values were obtained:
[1] = system: C. albicans ATCC MYA-1003(R) (strain G); assay: MIC, broth microdilution (CLSI M27-A3), yeast strain G; assay type: cell-based; conditions: Candida albicans; MIC-0, strain G, 35 °C 48 h
Procedure: (§1) The final concentrations of compounds 3, 4, 7a, 7b, 9, and 16, as well as that of TOB tested in this study ranged from 0.24–62.5 μg/mL. CAS was used as a positive control and the final concentrations tested for CAS ranged from 0.03–31.3 μg/mL. Briefly, overnight yeast cultures were grown in yeast peptone dextrose (YPD) broth and the cell density was adjusted to an OD600 of 0.12 (~1 × 10^6 CFU/mL) by using a spectrophotometer. Yeast cell suspensions were further diluted to achieve 1–5 × 10^3 CFU/mL in RPMI 1640 medium, and 100 μL of these yeast cells was added to 96-well microtiter plates containing RPMI 1640 medium and titrated compounds. Each test was performed in triplicate. The plates were incubated at 35 °C for 48 h.

[2] = system: Aspergillus terreus ATCC MYA-3633 (strain M); assay: MIC, filamentous fungi (CLSI M38-A2), strain M; assay type: cell-based; conditions: MIC-0, strain M, 35 °C 72 h
Procedure: (§2) The spores were harvested from sporulating cultures growing on potato dextrose agar (PDA) by filtration through sterile glass wool and enumerated by using a hemocytometer (Hausser Scientific, Horsham, PA, USA) to obtain the desired inoculum size. Two-fold serial dilutions of compounds 3, 4, 7a, 7b, 9, and 16, as well as CAS and TOB were made in sterile 96-well microtiter plates to obtain the final concentration range of 0.24–62.5 μg/mL for TOB and TOB derivatives as well as 0.03–31.3 μg/mL for CAS in the RPMI 1640 medium. The spore suspensions were added to the wells to afford a final concentration of 5 × 10^5 spores/mL. The plates were incubated at 35 °C for 72 h. […] Each test was performed in triplicate.

[3] = system: C. albicans ATCC 10231 (strain A); assay: MIC, broth microdilution (CLSI M27-A3), yeast strain A; assay type: cell-based, Candida albicans; conditions: Candida albicans, ATCC10231; MIC-0, strain A, 35 °C 48 h
Procedure: as §1

[4] = system: Candida parapsilosis clinical isolate CP3; assay: MIC, broth microdilution (CLSI M27-A3), CP3; assay type: cell-based; conditions: MIC-0, CP3, 35 °C 48 h
Procedure: as §1

[5] = system: C. albicans ATCC 64124 (strain B); assay: MIC, broth microdilution (CLSI M27-A3), yeast strain B; assay type: cell-based; conditions: Candida albicans, ATCC64124; MIC-0, strain B, 35 °C 48 h
Procedure: as §1

[6] = system: C. albicans ATCC MYA-2876(S) (strain C); assay: MIC, broth microdilution (CLSI M27-A3), yeast strain C; assay type: cell-based; conditions: Candida albicans; MIC-0, strain C, 35 °C 48 h
Procedure: as §1

[7] = system: seven C. albicans strains (A-G); assay: MIC across the panel of seven C. albicans strains; assay type: cell-based; conditions: Candida albicans; across all seven C. albicans strains tested
Procedure: as §1

[8] = system: C. albicans ATCC MYA-1237(R) (strain F); assay: MIC, broth microdilution (CLSI M27-A3), yeast strain F; assay type: cell-based; conditions: Candida albicans; MIC-0, strain F, 35 °C 48 h
Procedure: as §1

[9] = system: Aspergillus flavus ATCC MYA-3631 (strain K); assay: MIC, filamentous fungi (CLSI M38-A2), strain K; assay type: cell-based; conditions: Aspergillus flavus, 72 h, MIC-0, strain K, 35 °C 72 h; read-out: MIC
Procedure: as §2

[10] = system: Candida glabrata clinical isolate CG3; assay: MIC, broth microdilution (CLSI M27-A3), CG3; assay type: cell-based; conditions: Nakaseomyces glabratus; MIC-0, CG3, 35 °C 48 h
Procedure: as §1

[11] = system: Cryptococcus neoformans clinical isolate CN3; assay: MIC, broth microdilution (CLSI M27-A3), CN3; assay type: cell-based; conditions: MIC-0, CN3, 35 °C 48 h
Procedure: as §1

[12] = system: Candida glabrata clinical isolate CG1; assay: MIC, broth microdilution (CLSI M27-A3), CG1; assay type: cell-based; conditions: Nakaseomyces glabratus; MIC-0, CG1, 35 °C 48 h
Procedure: as §1

[13] = system: Candida parapsilosis clinical isolate CP1; assay: MIC, broth microdilution (CLSI M27-A3), CP1; assay type: cell-based; conditions: Lodderomyces parapsilosis; MIC-0, CP1, 35 °C 48 h
Procedure: as §1

[14] = system: C. albicans ATCC 90819(R) (strain D); assay: MIC, broth microdilution (CLSI M27-A3), yeast strain D; assay type: cell-based; conditions: Candida albicans, ATCC90819; MIC-0, strain D, 35 °C 48 h
Procedure: as §1

[15] = system: Candida glabrata ATCC 2001 (strain H); assay: MIC, broth microdilution (CLSI M27-A3), yeast strain H; assay type: cell-based; conditions: Nakaseomyces glabratus, ATCC2001; MIC-0, strain H, 35 °C 48 h
Procedure: as §1

[16] = system: Candida parapsilosis ATCC 22019 (strain J); assay: MIC, broth microdilution (CLSI M27-A3), yeast strain J; assay type: cell-based; conditions: Lodderomyces parapsilosis, ATCC22019; MIC-0, strain J, 35 °C 48 h
Procedure: as §1

[17] = system: Cryptococcus neoformans clinical isolate CN2; assay: MIC, broth microdilution (CLSI M27-A3), CN2; assay type: cell-based; conditions: MIC-0, CN2, 35 °C 48 h
Procedure: as §1

[18] = system: Cryptococcus neoformans clinical isolate CN1; assay: MIC, broth microdilution (CLSI M27-A3), CN1; assay type: cell-based; conditions: MIC-0, CN1, 35 °C 48 h
Procedure: as §1

[19] = system: Candida parapsilosis clinical isolate CP2; assay: MIC, broth microdilution (CLSI M27-A3), CP2; assay type: cell-based; conditions: Lodderomyces parapsilosis; MIC-0, CP2, 35 °C 48 h
Procedure: as §1

[20] = system: Candida krusei ATCC 6258 (strain I); assay: MIC, broth microdilution (CLSI M27-A3), yeast strain I; assay type: cell-based; conditions: Pichia kudriavzevii, ATCC6258; MIC-0, strain I, 35 °C 48 h
Procedure: as §1

[21] = system: nine non-albicans Candida strains (H-J, CG1-3, CP1-3); assay: MIC across the panel of nine non-albicans Candida strains; assay type: cell-based, Candida glabrata, Candida krusei, Candida parapsilosis
Procedure: as §1

[22] = system: Candida glabrata clinical isolate CG2; assay: MIC, broth microdilution (CLSI M27-A3), CG2; assay type: cell-based; conditions: Nakaseomyces glabratus; MIC-0, CG2, 35 °C 48 h
Procedure: as §1

[23] = system: Aspergillus nidulans ATCC 38163 (strain L); assay: MIC, filamentous fungi (CLSI M38-A2), strain L; assay type: cell-based; conditions: Aspergillus nidulans, ATCC38163, 72 h, MIC-0, strain L, 35 °C 72 h; read-out: MIC
Procedure: as §2

[24] = system: C. albicans ATCC MYA-2310(S) (strain E); assay: MIC, broth microdilution (CLSI M27-A3), yeast strain E; assay type: cell-based; conditions: Candida albicans; MIC-0, strain E, 35 °C 48 h
Procedure: as §1

Hemolytic activity assay = assay type: cell-based, murine; conditions: mouse, murine red blood cells (mRBCs), mRBCs, 37 °C 1 h, ± SDEV
Procedure: (§3) The hemolytic activity of compounds 3, 4, 7a, 7b, and 9 as well as the parent compound TOB was determined by using previously described methods with minor modifications. Murine whole blood (1 mL) was suspended in 4 mL of PBS and centrifuged at 1000 rpm for 10 min at room temperature to obtain murine red blood cells (mRBCs). The mRBCs were washed four times in PBS and resuspended in the same buffer to a final concentration of 10^7 erythrocytes/mL. Two-fold serial dilutions of compounds 3, 4, 7a, 7b, and 9 were prepared using 100 μL of PBS buffer in Eppendorf tubes followed by the addition of 100 μL of mRBC suspension that made the final concentration of compounds and mRBCs to be 0.48–62.5 μg/mL and 5 × 10^6 erythrocytes/mL, respectively. The tubes were incubated at 37 °C for 1 h. The tubes with PBS buffer (200 μL) and Triton X-100® (1% v/v, 2 μL) served as the negative (blank) and positive controls, respectively. The percentage of hemolysis was calculated using the following equation: % hemolysis = [(absorbance of sample) − (absorbance of blank)] × 100/(absorbance of positive control).

[25] = system: murine red blood cells (mRBCs); assay: Hemolytic activity assay; assay type: cell-based; conditions: 62.5 μg/mL, mRBCs, 37 °C 1 h, ± SDEV
Procedure: as §3

MIC [1]: 62.5 µg/mL (≈ 98.3 µM) | MIC [2]: > 62.5 µg/mL | MIC [3]: 62.5 µg/mL (≈ 98.3 µM) | MIC [4]: 62.5 µg/mL (≈ 98.3 µM) | MIC [5]: 62.5 µg/mL (≈ 98.3 µM) | MIC [6]: > 62.5 µg/mL | MIC [7]: ≥ 62.5 µg/mL | MIC [8]: 62.5 µg/mL (≈ 98.3 µM) | MIC [9]: > 62.5 µg/mL | MIC [10]: 62.5 µg/mL (≈ 98.3 µM) | MIC [11]: 3.9 µg/mL (≈ 6.13 µM) | MIC [12]: > 62.5 µg/mL | MIC [13]: 62.5 µg/mL (≈ 98.3 µM) | MIC [14]: 62.5 µg/mL (≈ 98.3 µM) | MIC [15]: 62.5 µg/mL (≈ 98.3 µM) | MIC [16]: 31.3 µg/mL (≈ 49.2 µM) | MIC [17]: 0.975 µg/mL (≈ 1.53 µM) | MIC [18]: 1.95 µg/mL (≈ 3.07 µM) | MIC [19]: 62.5 µg/mL (≈ 98.3 µM) | MIC [20]: 31.3 µg/mL (≈ 49.2 µM) | MIC [21]: 31.3 to 62.5 µg/mL (≈ 49.2 to 98.3 µM) | MIC [22]: 62.5 µg/mL (≈ 98.3 µM) | MIC [23]: 3.9 µg/mL (≈ 6.13 µM) | MIC [24]: 62.5 µg/mL (≈ 98.3 µM)
Compound: CCCCCCCCCCCCOCC1OC(OC2C(N)CC(N)C(OC3OC(CN)C(O)CC3N)C2O)C(O)C(N)C1O [Compound 16, O-3-Amino-3-deoxy-6-O-dodecyl-α-D-glucopyranosyl-(1→6)-O-[2,6-diamino-2,3,6-trideoxy-α-D-ribo-hexopyranosyl-(1→4)]-2-deoxy-D-streptamine]

Compound: C[C@@H]1[C@H](O)[C@@H](C)/C=C/C=C/C=C/C=C/C=C/C=C/C=C/[C@H](O[C@@H]2O[C@H](C)[C@@H](O)[C@H](N)[C@@H]2O)C[C@@H]2O[C@](O)(C[C@@H](O)C[C@@H](O)[C@H](O)CC[C@@H](O)C[C@@H](O)CC(=O)O[C@H]1C)C[C@H](O)[C@H]2C(=O)O [AmB, amphotericin B, reference compound]
hemolysis at 1 h, 0.48 μg/mL (Hemolytic activity assay; 0.48 μg/mL): 0% | hemolysis at 1 h, 0.975 μg/mL (Hemolytic activity assay; 0.975 μg/mL): 0% | hemolysis at 1 h, 1.95 μg/mL (Hemolytic activity assay; 1.95 μg/mL): 1.7 ± 0.1% | hemolysis at 1 h, 3.9 μg/mL (Hemolytic activity assay; 3.9 μg/mL): 3.4 ± 0.6% | hemolysis at 1 h, 7.8 μg/mL (Hemolytic activity assay; 7.8 μg/mL): 3.7 ± 0.7% | hemolysis at 1 h, 15.6 μg/mL (Hemolytic activity assay; 15.6 μg/mL): 31.9 ± 5.7% | hemolysis at 1 h, 31.3 μg/mL (Hemolytic activity assay; 31.3 μg/mL): 80.2 ± 8.5% | % hemolysis [25]: 90.3 ± 5.7%
